According to patent US11318190B2, “Methods and compositions for treating liver disease” (UNITED STATES GOVERNMENT AS REPRESENTED BY THE DEPARTMENT …, priority 2017, dated 2022):

Columns and labels:
[1] = test system: human hepatic stellate cells (hHSC); assay: hHSC activation by cholangiocyte supernatants from treated mice (qPCR); format: cell-based
Description: In vitro experiments were performed in human hepatic stellate cells (hHSC) that were purchased from ScienCell Research Laboratories (Carlsbad, Calif.) that were maintained in standard conditions.
[…] Activation of hHSCs was determined by qPCR for FN-1, TGF-β1, α-SMA, and collagen type-1a (Kennedy, L L et al., Knockout of microRNA-21 reduces biliary hyperplasia and liver fibrosis in cholestatic bile duct ligated mice, Lab Invest 96:1256-1267 (2016)).

dnTGF-βRII mice [2] = assay: dnTGF-βRII mice 32-34 wk (late stage PBC model) treated 1 wk by osmotic minipump; format: in vivo, mouse; conditions: for intrahepatic bile duct mass (IBDM, CK-19): 1 wk minipump
Description: (§1) Briefly, we used wild-type (WT), dnTGFβRII 12 wk and dnTGFβRII 34 wk mice treated with control or SR antagonist (SCT 5-27) minipump (10 μg/kg/day) for 1 wk. Hepatic damage was shown by H&E. IBDM and cholangiocyte proliferation were measured by immunohistochemistry for CK-19 and Ki67, respectively. Biliary apoptosis was evaluated by TUNEL staining. Senescence was measured in cholangiocytes by immunofluorescence for CCL2 or p16 co-stained with CK-19 (to image bile ducts) and SA-β-Galactosidase activity. Hepatic fibrosis was assessed by qPCR for collagen-1a and α-SMA in total liver, and quantification of Sirius Red staining. Hepatic stellate cell (HSC) activation was evaluated by immunofluorescence (IF) for Syp-9. HSC senescence was evaluated by IF for CCL2 or p16 co-stained with desmin (to visualize HSCs). Secretin levels in serum and bile were measured by EIA. Bile and serum were obtained from human control, early PBC and advanced PBC patients, and secretin was evaluated by EIA.
(§2) All animal procedures were performed according to protocols approved by the Baylor Scott & White Health IACUC Committee. Transgenic mice expressing a dominant-negative form of the human transforming growth factor-beta receptor II (dnTGF-βRII) were obtained from Dr. M. Eric Gershwin at UC Davis Health (Sacramento, Calif.), and background-matched wild-type (WT, strain C57BL/6) mice were purchased from Charles River Laboratories (Wilmington, Mass.); the breeding colony is established in our animal facility. Animals were maintained in micro-isolator cages in a temperature-controlled environment with 12/12-hr light/dark cycles and fed ad libitum standard chow with free access to drinking water. Studies were performed in 12 wk-old WT mice, and 12 wk-old (mimic early stage PBC) and 32 wk-old (mimic late stage PBC) female and male dnTGF-βRII mice (25-30 gm) that were treated with either saline, secretin (Sct; 2.5 nmoles/kg body weight per day; Bachem, Torrance, Calif.) or the secretin receptor (SR) antagonist, Sec 5-27 (10 μg/kg body weight per day; Thermo Fisher Scientific, Waltham, Mass.) for 1 wk by intraperitoneally implanted osmotic minipump. Liver tissue samples and blocks (formalin-fixed, paraffin-embedded and OCT-embedded), serum, bile, cholangiocytes, and cholangiocyte supernatants (after incubation at 37° C. for 4 hr) were collected as described.
(§3) Hematoxylin and eosin (H&E) staining was performed in formalin-fixed, paraffin-embedded liver sections (4-5 μm, 3 samples from 3 different animals) to determine liver morphology. H&E stained liver sections were evaluated by a board-certified pathologist to assess the degree of lobular damage, hepatic necrosis and portal inflammation. At least 10 different portal areas were evaluated for each parameter. Liver sections were examined in a coded fashion by BX-51 light microscopy (Olympus, Tokyo, Japan) equipped with a camera (See, Mancinelli, R et al., Ischemia reperfusion of the hepatic artery induces the functional damage of large bile ducts by changes in the expression of angiogenic factors. Am J Physiol Gastrointest Liver Physiol 2015; 309:G865-873 (2015); Taffetani S et al., Prolactin stimulates the proliferation of normal female cholangiocytes by differential regulation of Ca2+-dependent PKC isoforms, BMC Physiol 7:6 (2007)).
(§4) Serum levels of alkaline phosphatase (ALP) and γ-glutamyltransferase (γGT) are commonly used to diagnose PBC (Heathcote, E J, Management of primary biliary cirrhosis. The American Association for the Study of Liver Diseases practice guidelines, Hepatology 31:1005-1013 (2000)); therefore, were measured serum levels of ALP and γGT in mouse serum samples using the Alkaline Phosphatase Assay Kit and γ-Glutamyltransferase Activity Colorimetric Assay Kit, respectively (Abcam; Cambridge, Mass.).
(§5) Early stage PBC is identified by cholangiocyte proliferation, whereas late stage PBC is characterized by ductopenia. […]

Mdr2−/− mice = conditions: cited from earlier work
dnTGF-βRII mice [3] = assay: dnTGF-βRII mice 12 wk (early stage PBC model) treated 1 wk by osmotic minipump; format: in vivo, mouse; conditions: dnTGF-βRII 12 wk; for intrahepatic bile duct mass (IBDM, CK-19): 1 wk minipump
Description: as §1, §2, §3, §4, §5

[4] = dnTGF-βRII 32/34 wk, vs saline treated
[5] = dnTGF-βRII 32/34 wk, listed as SR antagonist
[6] = vs saline treated, listed as SR antagonist

15-lysine-secretin-(5-27) [SCT 5-27]
increased: collagen content / deposition (Sirius Red), hepatic fibrosis (dnTGF-βRII mice [2]; dnTGF-βRII 32/34 wk) | biliary senescence (p16, p18, p21, CCL2) (dnTGF-βRII mice [2]; [5]) | HSC activation (SYP-9) (dnTGF-βRII mice [2]; dnTGF-βRII 34 wk) | HSC senescence (dnTGF-βRII mice [3]) | cholangiocyte apoptosis (TUNEL-positive cholangiocytes) (dnTGF-βRII mice [3]; listed as SR antagonist)
significantly reduced: collagen content / deposition (Sirius Red), hepatic fibrosis (dnTGF-βRII mice [3]; vs saline treated) | intrahepatic bile duct mass (IBDM, CK-19) (dnTGF-βRII mice [3]; vs saline treated)
further increased: biliary senescence (p16, p18, p21, CCL2) (dnTGF-βRII mice [2]; dnTGF-βRII 32/34 wk) | cholangiocyte apoptosis (TUNEL) (dnTGF-βRII mice [2]; dnTGF-βRII 32/34 wk) | collagen content / deposition (Sirius Red), hepatic fibrosis (dnTGF-βRII mice [2]; [5])
decreased: intrahepatic bile duct mass (IBDM, CK-19) (dnTGF-βRII mice [2]; dnTGF-βRII 32/34 wk, vs saline treated, listed as SR antagonist) | TGF-β1/TGF-β1 receptor axis expression (Mdr2−/− mice; Mdr2−/− mice) | biliary senescence (p16, p18, p21, CCL2) (dnTGF-βRII mice [3]; listed as SR antagonist)
further reduced: intrahepatic bile duct mass (IBDM, CK-19) (dnTGF-βRII mice [2]; [4]) | biliary growth / cholangiocyte proliferation (dnTGF-βRII mice [2]; dnTGF-βRII 34 wk)
further decrease: Sct, SR, CFTR and AE2 expression (dnTGF-βRII mice [2]; [4])
exacerbated: cholangiocyte apoptosis (TUNEL) (dnTGF-βRII mice [2]; [5]) | liver damage (H&E) (dnTGF-βRII mice [2]; dnTGF-βRII 34 wk)
reduced: expression of FN-1, TGF-β1, α-SMA and collagen type-1a in hHSCs ([1]; cholangiocyte supernatants from treated dnTGF-βRII mice 12 wks) | secretin levels (serum; serum and bile) (dnTGF-βRII mice [2]; dnTGF-βRII 34 wk) | hepatic fibrosis and HSC activation (Mdr2−/− mice; BDL and Mdr2−/− mouse model of PSC) | biliary mass and HSCs activation (Mdr2−/− mice; Mdr2−/− mice) | HSC activation (SYP-9 staining) (dnTGF-βRII mice [3]) | biliary senescence (p16, p18, p21, CCL2) (dnTGF-βRII mice [3]) | cholangiocyte proliferation (Ki67) (dnTGF-βRII mice [3]) | liver damage (H&E: portal inflammation, inflammatory infiltration, lobular necrosis) (dnTGF-βRII mice [3]) | secretin levels (serum and bile, EIA) (dnTGF-βRII mice [3]) | Sct, SR, CFTR and AE2 expression (dnTGF-βRII mice [3]; vs saline treated) | serum levels of ALP and γGT (dnTGF-βRII mice [3]; vs saline treated) | intrahepatic bile duct mass (IBDM, CK-19) (dnTGF-βRII mice [3]; [6])
ameliorated: collagen content / deposition (Sirius Red), hepatic fibrosis (dnTGF-βRII mice [3]; [6]) | liver damage (H&E: portal inflammation, inflammatory infiltration, lobular necrosis) (dnTGF-βRII mice [3]; listed as SR antagonist)
enhanced: expression of FN-1, TGF-β1, α-SMA and collagen type-1a in hHSCs ([1]; cholangiocyte supernatants from treated dnTGF-βRII mice 34 wks) | HSC activation (SYP-9) (dnTGF-βRII mice [2]; dnTGF-βRII 34 wk, listed as SR antagonist) | cholangiocyte apoptosis (TUNEL-positive cholangiocytes) (dnTGF-βRII mice [3])
